In patent publication US7696203B2, “DNA-PK inhibitors” (Kudos Pharmaceuticals Limited, priority 2005, dated 2010):
Read-outs that look alike come from different tables or passages of the source.

Assays:
Mammalian DNA-PK = Mammalian DNA-PK (Homo sapiens, UniProt P78527); assay: DNA-PK inhibition assay (ELISA of p53 Ser15 phosphorylation of GST-p53N66); assay type: biochemical, human (isolated from HeLa cell nuclear extract)
Method: In order to assess the inhibitory action of the compounds against DNA-PK in vitro, the following assay was used to determine IC50 values.
To the assay mix, varying concentrations of inhibitor (in DMSO at a final concentration of 1%) were added. After 10 minutes of incubation, ATP was added to give a final concentration of 50 μM along with a 30 mer double stranded DNA oligonucleotide (final concentration of 0.5 ng/ml) to initiate the reaction. After 1 hour with shaking, 150 μl of phosphate buffered saline (PBS) was added to the reaction and 5 μl then transferred to a 96 well opaque white plate containing 45 μl of PBS per well where the GSTp53N66 substrate was allowed to bind to the wells for 1 hour. To detect the phosphorylation event on the serine 15 residue of p53 elicited by DNA-PK a p53 phosphoserine-15 antibody (Cell Signaling Technology) was used in a basic ELISA procedure. An anti-rabbit HRP conjugated secondary antibody (Pierce) was then employed in the ELISA before the addition of chemiluminescence reagent (NEN Renaissance) to detect the signal as measured by chemiluminescent counting via a TopCount NXT (Packard).
The enzyme activity for each compound is then calculated using the following equation: […]
These are determined over a range of different concentrations, normally from 10 μM down to 0.001 μM. Such IC50 values are used as comparative values to identify increased compound potencies.

cells = conditions: ionising radiation, literature; cited from earlier work
HeLa cells = assay: Survival Enhancement Ratio (clonogenic survival after 2 Gray irradiation); assay type: cell-based, human; conditions: inhibitor at 100 nM
Method: Survival Enhancement Ratio
The Survival Enhancement Ratio (SER) is a ratio of the enhancement of cell kill elicited by the DNA-PK inhibitor after 2 Grays of irradiation compared to unirradiated control cells. […] Radiation was delivered by a Faxitron 43855D machine at a dose rate of 1 Gy pre minute The SER at 2 Gray irradiation was calculated from the formula:
The degree of cell killing was monitored by a standard clonogenic survival assay. Briefly, tissue culture treated 6-well plates were seeded with HeLa cells at an appropriate concentration to give 100-200 colonies per well and returned to the incubator in order to allow the cells to attach. Four hours later, compound or vehicle control was added to the cells. The cells were then incubated for 1 hour in the presence of inhibitor prior to irradiation at 2 Gray using a Faxitron 43855D cabinet X-ray machine. The cells were then incubated for a further 16 hours before the media was replaced with fresh media in the absence of DNA-PK inhibitor. After 8 days, colonies formed were fixed and stained with Giemsa (Sigma, Poole, UK) and scored using an automated colony counter (Oxford Optronics Ltd, Oxford, UK). The data was calculated as described above.

[1] = DNA-PK from HeLa nuclear extract, 50 μM ATP, 30° C., read-out: IC50 (concentration at which 50% of the enzyme activity is inhibited), DNA-PK inhibition

Row | IC50 (Mammalian DNA-PK; [1]) [nM] | SMILES | other results
1 | < 100 | Nc1ccc(-c2cccn3c(=O)cc(N4CCOCC4)nc23)c2sc3ccccc3c12 [Compound 23, 9-(1-Amino-dibenzothiophen-4-yl)-2-morpholin-4-yl-pyrido[2,1-a]pyrimidin-4-one] | 
2 | < 100 | Nc1ccc(-c2cccc3c(=O)cc(N4CCOCC4)[nH]c23)c2sc3ccccc3c12 [Compound 25, 8-(1-amino-dibenzothiophen-4-yl)-2-morpholin-4-yl-1H-quinolin-4-one] | 
3 |  | O=c1cc(N2CCOCC2)[nH]c2c(-c3ccc([N+](=O)[O-])c4c3oc3ccccc34)cccc12 [Compound 28, 2-Morpholin-4-yl-8-(1-nitro-dibenzofuran-4-yl)-1H-quinolin-4-one] | melting point: 247 °C
4 | < 100 | O=c1cc(N2CCOCC2)nc2c(-c3ccc(O)c4c3sc3ccccc34)cccn12 [Compound 31, 9-(1-Hydroxy-dibenzothiophen-4-yl)-2-morpholin-4-yl-pyrido[2,1-a]pyrimidin-4-one] | 
5 |  | O=c1cc(N2CCOCC2)nc2c(-c3cccc4c3oc3ccccc34)cccn12 [Compound 34b] | IC50 (Mammalian DNA-PK): < 100 nM
6 | < 100 | O=C(CN1CCOCC1)Nc1ccc(-c2cccc3c(=O)cc(N4CCOCC4)[nH]c23)c2sc3ccccc3c12 [Compound 38b] | 
7 | < 100 | COCCN1CCN(CC(=O)Nc2ccc(-c3cccc4c(=O)cc(N5CCOCC5)[nH]c34)c3oc4ccccc4c23)CC1 [Compound 42b] | 
8 | < 100 | C[C@@H]1CN(CC(=O)Nc2ccc(-c3cccc4c(=O)cc(N5CCOCC5)[nH]c34)c3oc4ccccc4c23)C[C@H](C)O1 [Compound 42d] | 
9 | < 100 | O=C(CN1CCN(CCO)CC1)Nc1ccc(-c2cccc3c(=O)cc(N4CCOCC4)[nH]c23)c2oc3ccccc3c12 [Compound 42f] | 
10 | < 100 | C[C@@H]1CN(CCC(=O)Nc2ccc(-c3cccc4c(=O)cc(N5CCOCC5)oc34)c3oc4ccccc4c23)C[C@H](C)O1 [Compound 45a] | 
11 | < 100 | O=C(CCN1CCOCC1)Nc1ccc(-c2cccc3c(=O)cc(N4CCOCC4)oc23)c2oc3ccccc3c12 [Compound 45c] | 
12 |  | O=c1cc(N2CCOCC2)oc2c(-c3ccccc3)cccc12 [LY294002] | sensitisation of cells to the effects of IR (cells): weakly sensitise cells
13 |  | O=c1cc(N2CCOCC2)oc2c(-c3cccc4c3sc3ccccc34)cccc12 [reference compound] | IC50 (Mammalian DNA-PK): 10 to 12 nM; SER (Survival Enhancement Ratio) (HeLa cells): 1.3
